In brackets after ≈: the same amount, converted by molar mass. Read-outs that look alike come from different tables or passages of the source.
Legend:
[1] = target: Mtb Pks13-TE domain (wild-type) (Mycobacterium tuberculosis, UniProt I6X8D2); assay: biochemical; type: biochemical; conditions: for loss / decrease in inhibitory activity compared to compound I: relative to compound I
Mtb strain mc^27000 = assay: microbe, parasite or virus in culture; type: cell-based, Mycobacterium tuberculosis; conditions: for MIC: read-out: MIC
[2] = Pks13-TE, 20 μM 4-MUH, read-out: IC50
[3] = Mycobacterium tuberculosis, Mtb mc^27000, liquid medium, 96-well plates
[4] = Mtb Pks13-TE domain, mean ± s.d. of triplicates, read-out: IC50
[5] = Mtb mc^27000, liquid medium, 96-well plates
[6] = […], mean ± s.d. of triplicates, NI: no inhibition

Chain of Mtb Pks13-TE domain (wild-type) (I6X8D2 1451-1733): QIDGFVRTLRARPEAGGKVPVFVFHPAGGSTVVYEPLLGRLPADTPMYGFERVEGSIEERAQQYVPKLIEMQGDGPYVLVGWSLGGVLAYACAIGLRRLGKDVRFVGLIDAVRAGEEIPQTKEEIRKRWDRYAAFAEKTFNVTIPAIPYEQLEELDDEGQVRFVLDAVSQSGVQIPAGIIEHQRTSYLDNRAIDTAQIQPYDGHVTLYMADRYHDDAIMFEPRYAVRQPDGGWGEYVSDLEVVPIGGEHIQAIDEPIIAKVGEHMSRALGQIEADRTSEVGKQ

CCOC(=O)c1c(-c2ccccc2)oc2ccc(O)c(Cc3ccccc3)c12 [compound 10]
IC50 [1, 2]: 11.9 µM
MIC (Mtb strain mc^27000; [3]): 40 µM (≈ 14.9 µg/mL)

CCOC(=O)c1c(-c2ccccc2)oc2ccc(O)c(C)c12 [compound 12]
IC50 [1, 2]: > 20 µM
MIC (Mtb strain mc^27000; [3]): 20 µM (≈ 5.93 µg/mL)

O=C(O)c1c(-c2ccccc2)oc2ccc(O)c(CN3CCCCC3)c12 [compound 14]
IC50 [1, 4]: 6.6 ± 0.7 µM
loss / decrease in inhibitory activity compared to compound I [1]: ~20 fold
whole-cell activity (Mtb growth inhibition), in words (Mtb strain mc^27000; Mtb mc^27000): completely abolished

CCOC(=O)c1c(-c2ccccc2)oc2ccc(O)c(CC3CCCCC3)c12 [compound 16]
IC50 [1, 4]: 19.6 ± 1.4 µM
IC50 [1, 2]: 19.6 µM
loss of inhibitory activity / higher IC50 against Pks13-TE compared to the test compound ([1]; relative to test compound): > 70 fold
MIC (Mtb strain mc^27000; [5]): 5.2 µM (≈ 1.97 µg/mL)
MIC (Mtb strain mc^27000; [6]): 5.2 µM (≈ 1.97 µg/mL)

CCNC(=O)c1c(-c2ccccc2)oc2ccc(O)c(CN3CCCCC3)c12 [compound 18]
IC50 [1, 2]: 0.36 µM
MIC (Mtb strain mc^27000; [3]): 14 µM (≈ 5.3 µg/mL)

CCOC(=O)c1c(-c2ccccc2)oc2ccc(OC)c(Cc3ccccc3)c12 [compound 19]
IC50 [1, 2]: 50 µM
MIC (Mtb strain mc^27000; [3]): 50 µM (≈ 19.3 µg/mL)

CNC(=O)c1c(-c2ccccc2)oc2ccc(OC)c(C(O)c3ccccc3)c12 (stereo not drawn) [compound 20]
IC50 [1, 2]: 50 µM
MIC (Mtb strain mc^27000; [3]): 50 µM (≈ 19.4 µg/mL)

CCOC(=O)c1c(-c2ccccc2)oc2ccc(OC)c(CN3CCCCC3)c12 [compound 23]
IC50 [1, 4]: 35.8 ± 2.2 µM
IC50 ([1]; Pks13-TE, read-out: IC50 (unit inferred)): ~36 µM
loss / decrease in inhibitory activity compared to compound I [1]: > 100 fold
MIC (Mtb strain mc^27000; [3]): 35.8 µM (≈ 14.1 µg/mL)

CCOC(=O)c1c(-c2ccccc2)oc2cccc(CN3CCCCC3)c12 [compound 24]
IC50 [1, 4]: 2 ± 0.1 µM
IC50 [1, 2]: 2 µM
loss / decrease in inhibitory activity compared to compound I [1]: ~7 fold
MIC (Mtb strain mc^27000; [5]): 16 µM (≈ 5.82 µg/mL)
MIC (Mtb strain mc^27000; [6]): 16 µM (≈ 5.82 µg/mL)

CCOC(=O)c1c(-c2ccc(F)cc2)oc2ccc(O)c(CN3CCCCC3)c12 [compound 25]
IC50 [1, 2]: 0.35 µM
MIC (Mtb strain mc^27000; [5]): 1.5 µM (≈ 0.596 µg/mL)

CCOC(=O)c1c(-c2ccccc2)oc2cc(CN3CCCCC3)cc(O)c12 [compound 36]
MIC (Mtb strain mc^27000; [3]): 40 µM (≈ 15.2 µg/mL)

CNC(=O)c1c(-c2ccc(NC(C)=O)cc2)oc2ccc(O)c(CN3CCCCC3)c12 [compound 66]
MIC (Mtb strain mc^27000; [3]): > 20 µM

CNC(=O)c1c(-c2ccccc2)oc2cc(O)cc(CS(=O)(=O)NC)c12 [compound 83]
MIC (Mtb strain mc^27000; [3]): > 20 µM

CNC(=O)c1c(-c2ccncc2)oc2cc(O)cc(CN3CCCCC3)c12 [compound 84]
MIC (Mtb strain mc^27000; [3]): 6.1 µM (≈ 2.23 µg/mL)

CNC(=O)c1c(-c2ccnc(O)c2)oc2cc(O)cc(CN3CCCCC3)c12 [compound 85]
MIC (Mtb strain mc^27000; [3]): > 10 µM

CNC(=O)c1c(-c2ccnc(OC)c2)oc2cc(O)cc(CN3CCCCC3)c12 [compound 87]
MIC (Mtb strain mc^27000; [3]): 3.3 µM (≈ 1.31 µg/mL)

CNC(=O)c1c(-c2ccccc2)oc2cc(O)cc(CN3CCOCC3)c12 [compound 94]
MIC (Mtb strain mc^27000; [3]): > 20 µM

CNC(=O)c1c(-c2ccccc2)oc2cc(O)cc(CNC3CCOCC3)c12 [compound 95]
MIC (Mtb strain mc^27000; [3]): 8 µM (≈ 3.04 µg/mL)

CNC(=O)c1c(-c2ccccc2)oc2cc(O)cc(CNCCO)c12 [compound 96]
MIC (Mtb strain mc^27000; [3]): 9 µM (≈ 3.06 µg/mL)

CNC(=O)c1c(-c2ccccc2)oc2ccc(O)c(CCN3CCCC3)c12 [compound 101]
MIC (Mtb strain mc^27000; [3]): 3.3 µM (≈ 1.2 µg/mL)

CCOC(=O)c1c(-c2ccccc2)oc2ccc(O)c(CCO)c12 [compound 106]
MIC (Mtb strain mc^27000; [3]): > 20 µM

CCOC(=O)c1c(-c2ccccc2)oc2ccc(O)c(CCCO)c12 [compound 107]
MIC (Mtb strain mc^27000; [3]): > 20 µM

CCOC(=O)c1c(-c2ccccc2)oc2ccc(O)c(CC(=O)N3CCCC3)c12 [compound 130]
MIC (Mtb strain mc^27000; [5]): 4.1 µM (≈ 1.61 µg/mL)

CCOC(=O)c1c(-c2ccccc2)oc2ccc(O)c(CC(=O)NC3CCC3)c12 [compound 131]
MIC (Mtb strain mc^27000; [5]): 7.2 µM (≈ 2.83 µg/mL)

CCOC(=O)c1c(-c2ccccc2)oc2ccc(O)c(CCN3CCC(C)CC3)c12 [compound 149]
MIC (Mtb strain mc^27000; [3]): 2.3 µM (≈ 0.937 µg/mL)

CNC(=O)c1c(-c2ccccc2)oc2ccc(O)c(CCCNCc3nonc3C)c12 [compound 195]
MIC (Mtb strain mc^27000; [5]): >40 µM

CC(C)NC(=O)c1c(-c2ccc(O)cc2)oc2ccc(O)c(CCCN3CCC3)c12 [compound 214]
MIC (Mtb strain mc^27000; [5]): <0.08 µM

CCOC(=O)c1c(-c2ccccc2)oc2ccc(O)c(CCCCN3CCC3)c12 [compound 215]
MIC (Mtb strain mc^27000; [5]): <0.08 µM

CCOC(=O)c1c(-c2ccccc2)oc2ccc(O)c(CCCNCC(F)F)c12 [compound 218]
MIC (Mtb strain mc^27000; [5]): 2.8 µM (≈ 1.13 µg/mL)

Reference: patent publication US20180111913A1, “SUBSTITUTED BENZOFURAN DERIVATIVES AS NOVEL ANTIMYCOBACTERIAL AGENTS” (priority 2015, published 2018)
